Measured values as given in patent US9682158B2, “Therapy of malignant neoplasias” (priority 2005, dated 2017).
Entries after “also recorded” stand apart in the source; their conditions may differ. Blank lines part the entries; values can stand above or below the compound they belong to.

How the values were obtained:
[1] = test system: glioma, pancreas, prostate and breast cancer cells; assay: Cell survival after treatment with radiolabeled L-phenylalanines, further tumor cells; assay type: cell-based; settings: in vitro
Method: (§1) After development of a confluent lawn of cells, the cultures were exposed to 0.001-10 μCi/ml of the corresponding radiopharmaceutical for up to 48 hours at 37° C./5% CO2. In a parallel experiment, cells were irradiated using a 6-MeV linear accelerator with doses from 2 to 15 Gy for comparison of cell survival rate of both methods. In order to be able to observe the morphology of the glioma cells, the cells were grown on standard glass slides or in standard culture dishes. Then the medium was removed and the cells were fixed either in 70% ethanol for at least 30 min on ice for flow-cytometric analyses after staining or in 4% neutral buffered formalin for immunohistopathological analyse.
(§2) Human tumor cells grown on standard glass slides were fixed in 4% neutral buffered formalin and stained with the Giemsa method. The cell number was calculated in 10 consecutive high power fields (×40).

[2] = test system: human tumor cells, especially malignant gliomas; assay: Flow-cytometric analyses of stained cells after treatment (primary necrosis and apoptosis); assay type: cell-based; settings: flow cytometry; compared with external irradiation up to 15 Gy
Method: as §1

[3] = test system: glioma; assay: Clinical study with IPA-124 (PET imaging); assay type: in vivo, human
Method: IPA was prepared, as described in example 3. […] The patient was injected with 50 MBq IPA-124, and subsequently dynamically imaged at 40-80 min and at 6 days post injection using a dedicated PET camera (Siemens ECAT-ART Scanner, Siemens-CTI, Knoxville, Tenn., USA). SPECT images were acquired using 3-degree angular steps. During a 360° rotation 120 projections were recorded into a 128*128 matrix, with an acquisition time of 40 s per image. Images were reconstructed using manufacturer's software. Anatomical co-alignment with MRI data was performed using HERMES software for nuclear medicine (Nuclear Diagnostics, Stockholm, Sweden) (FIGS. 12a and b). Tumor uptake was visually assessed by two adequately trained, independent nuclear medicine physicians. The patient was operated on day 2 post injection. Post-operative images continue to show strong IPA uptake in projection to the resection margins corresponding to a large portion of tumor tissue which remained in situ. […] Post-operative images were semiquantitatively analysed. A region of interest (ROI) was drawn over the area of increased IPA-124 uptake and compared to a mirrored reference ROI in the contralateral healthy hemisphere using the median sagittal plane as mirror plane (FIG. 12c). Activity concentration in the remaining tumor tissue exceeded activity in the reference region by a factor of 8.86 after 6 days.

[4] = physical half life of the radionuclide; cited from earlier work
[5] = test system: glioma; settings: cited from earlier work
[6] = test system: glioma; assay: Clinical studies with IPA-123 (SPECT imaging); assay type: in vivo, human; settings: 250 MBq
Method: IPA was prepared, as described in example 2. […] Patients were injected with 250 MBq IPA-123, and subsequently imaged at 30 min, 3 h and, where possible, 24 h post injection, using a triple head SPECT camera (Siemens Multi-SPECT III, Erlangen, Germany) with low energy high resolution (LEHR) collimator and iterative reconstruction for cerebral (FIG. 14) imaging. Whole body imaging (FIG. 15) was performed using a Hawkeye dual head SPECT camera (General Electrics Medical Systems, Uppsala, Sweden) with high energy collimator, and iterative reconstruction at 0 min, 1 h and 3 h after injection of 250 MBq IPA-123. SPECT images were acquired using 3-degree angular steps. During a 360° rotation 120 projections were recorded into a 128*128 matrix, with an acquisition time of 40 s per image. Images were reconstructed using manufacturer's software. Anatomical co-alignment with MRI data was performed using HERMES software for nuclear medicine (Nuclear Diagnostics, Stockholm, Sweden). Tumor uptake was visually assessed by two adequately trained, independent nuclear medicine physicians. In discordant cases, a consensus rating was agreed upon. 86% of patients with histologically confirmed tumor show IPA-123 uptake.

[7] = test system: Tx 3868 primary human glioma cell line; assay: Cell survival rate after treatment with radiolabeled L-phenylalanines; assay type: cell-based
Method: (§3) Five human glioma cell lines, one rat glioma cell line, two human prostate cancer cell lines and one human breast cancer cell line were investigated. The human glioma cell lines Tx 3868 and T 5135 (from primary human glioblastoma multiforme), and the rat C6 glioma cells were provided by the Institute of Human Genetics, University of the Saarland (Homburg, Germany). The human high-grade glioma cells, designated as A1207, M059K and U373MG, the human prostate cancer cell lines PC3 and […], and the human breast cancer cell line MCF-07 (American Type Culture Collection, Rockville, Md.), were purchased commercially or provided by the oncological research laboratory of the University Medical Center of Saarland (Homburg, Germany). Cells were cultivated in RPMI-1640 medium or in Dulbecco's modified Eagle medium (sodium pyruvate-free, supplemented with […] and pyridoxine), respectively, supplemented with 10% (v/v) heat-inactivated foetal calf serum (FCS), penicillin (50 U/ml), streptomycin (50 μg/ml), and 50 μl insulin (PromoCell, Heidelberg, Germany). All cells lines were maintained in appropriate flasks in a humidified incubator (5% CO2) at 37° C. Before the experiment, subconfluent cell cultures were trypsinized with a solution of 0.05% trypsin containing 0.02% EDTA but without Ca^2+ and Mg^2+, and resuspended in fresh medium to various cell concentrations after counting by vital staining on a hemocytometer, depending upon the study. Cells were free of mycoplasms. Viability of the cells was >95%.
(§4) After development of a confluent lawn of cells, the cultures were exposed to 0.001-10 μCi/ml of the corresponding radiopharmaceutical for up to 48 hours at 37° C./5% CO2. In a parallel experiment, cells were irradiated using a 6-MeV linear accelerator with doses from 2 to 15 Gy for comparison of cell survival rate of both methods. […]
as §2

[8] = test system: T5135 primary human glioma cell line; assay: as above; assay type: cell-based; settings: 24 hours exposure, 1 μCi/ml, compared to parallel grown cell cultures without exposure
Method: as §3, §4, §2

[9] = test system: human A1207 glioblastomas; assay: IPA-131 endoradiotherapy of orthotopic human A1207 glioblastomas; assay type: in vivo; settings: dose 20 MBq, RNU rats
Method: (§5) The first studies were carried out on in male Wistar rats for C6 rat glioma model and in RNU rats for human glioma models. Wistar rats and RNU rats were from Charles River (Sulzfeld, Germany). The C6 rat glioma model has been previously described in detail. Its biological behavior closely simulates that of human high-grade gliomas.
(§6) One million (10^6) C6 rat glioma cells or 10^6 primary human Tx3868, […], A1207, M059K and U373MG high-grade glioma cells were stereotactically implanted into the left frontal region of Wistar rats or RNU rats while under chloral hydrate anaesthesia as described previously. The animals were held in metabolic cages. […] For each cell line, 6 animals with radiologically (MRI or by gamma camera) confirmed brain tumor were randomly chosen as control animals, a second group of 15 animals were treated with 20 MBq of the radiolabeled L-phenylalanine in two fractions of 10 MBq each via a Teflon catheter in a tail vein 9 and 18 days after tumour implantation. While a third group of 15 rats were irradiated with 4-8 Gy. Survival time was calculated according to the Kaplan-Meier method. Surviving animals were sacrificed after 90 and 180 days. All rat brains were examined histologically after biopsy.
(§7) At autopsy of the rats and mice, besides the brains, other organs were harvested including the heart, lung, liver, spleen, kidney, skin, and colon. […]

[10] = test system: C6 rat gliomas; assay: IPA-131 endoradiotherapy of orthotopic C6 rat gliomas; assay type: in vivo
Method: […] Wistar rats and RNU rats were from Charles River (Sulzfeld, Germany). The C6 rat glioma model has been previously described in detail. Its biological behavior closely simulates that of human high-grade gliomas.
as §6
Magnetic resonance imaging was performed 9 days after tumour implantation (before drug administration) and after the second injection of radiolabeled phenylalanine at day 18 as well as possibly at the day of scarification, using a 2.4-Tesla small animal magnetic resonance tomograph (Brucker Biospec 2.4, Karlruhe, Germany). This system was equipped with a rat coil to hold the animal and transmit homogeneous signals. All rats were imaged while under chloral hydrate anaesthesia (250 mg/kg, i.m.). Multiple axial and coronal images (T1- and T2-weighted) were acquired for 20 min without contrast media. The parameters used were: T1-weighted (TR=100 msec, TE=6.5 msec, flip angle 30°, FOV=2×2 cm, 256×128×64 matrix) and T2-weighted (TR=500 msec, TE=17.5 msec, 1 acquisition, RARE factor 16, FOV=2×2 cm, 256×256×32 matrix, slap-thickness 16 mm).
as §7

[11] = Clinical and histological safety observation of treated glioma rats; assay type: in vivo, rat
Method: as §6
At autopsy of the rats and mice, besides the brains, other organs were harvested including the heart, lung, liver, spleen, kidney, skin, and colon. The brains were cut in coronal slices of about 2-3 mm thickness. All tissues from the animals were fixed in 4% neutral buffered formalin and embedded in paraffin wax. Sections were stained with hematoxylin-eosin and Verhoeff-van Gieson and examined histopathologically.

[12] = test system: glioma; assay: Clinical study with IPA-131 (SPECT imaging); assay type: in vivo, human; settings: 100 MBq
Method: IPA was prepared, as described in example 3. […] The patient was injected with 100 MBq IPA-131 and subsequently imaged at 30 min and at 26 h post injection using a Hawkeye dual head SPECT camera (General Electrics Medical Systems, Uppsala, Sweden) with high energy collimator, and iterative reconstruction for cerebral (FIGS. 13a and b) and whole body (FIGS. 13c and d) imaging. SPECT images were acquired using 3-degree angular steps. During a 360° rotation 120 projections were recorded into a 128*128 matrix, with an acquisition time of 40 s per image. Images were reconstructed using manufacturer's software. Tumor uptake was visually assessed by two adequately trained, independent nuclear medicine physicians.

[13] = test system: orthotopically implanted rat and human gliomas; assay: IPA-131 endoradiotherapy in rats with orthotopically implanted rat and human gliomas, Kaplan-Meier survival; assay type: in vivo
Method: as §5, §6

[14] = test system: human Tx3868 glioblastomas; assay: IPA-131 endoradiotherapy of orthotopic human Tx3868 glioblastomas; assay type: in vivo; settings: dose 20 MBq, RNU rats
Method: as §5, §6, §7

Compound: 3,4-[^211I]astatine-L-phenylalanine [AtPA-211]
cell count / cell survival compared with IPA-131 results [1]: Identical results
induction of primary necrosis and apoptosis [2]: dose dependent induction of primary necrosis and apoptosis, which was more significant than that caused by external irradiation, even with 15 Gy

Compound: 3,4-[^77Br]bromo-L-Phenylalanine [BrPA-77]
cell count / cell survival compared with IPA-131 results [1]: Identical results
induction of primary necrosis and apoptosis [2]: dose dependent induction of primary necrosis and apoptosis, which was more significant than that caused by external irradiation, even with 15 Gy

retention of tracer in glioma ([3]; patient, 50 MBq, PET): at least 6 days
tumor activity relative to reference region (contralateral healthy tissue), factor ([3]; post-operatively remaining tumor tissue, 6 days post injection of 50 MBq): 8.86
Compound: N[C@@H](Cc1ccc([124I])cc1)C(=O)O [IPA-124, 4-[^124I]iodo-L-phenylalanine]
tumor uptake / targeting in glioma patient ([3]; 50 MBq, PET 40-80 min and 6 days post injection): retained in high activity concentrations by tumor tissue for prolonged periods; also recorded: Successful tumor targeting
tolerability ([3]; patient, 50 MBq): well tolerated
half life [4]: 101 h

retention of the tracer in tumor ([6]; patient with glioblastoma): at least 24 h
Compound: N[C@@H](Cc1ccc([123I])cc1)C(=O)O [IPA-123, 4-[^123I]iodo-L-phenylalanine]
accumulation in gliomas ([5]; after intravenous administration, ref [14]): accumulates specifically in low and high grade gliomas with surprisingly marked retention in tumor cells
blood-brain barrier passage ([5]; after intravenous administration, refs [13, 14]): crosses the blood-brain barrier
accumulation in the normal cerebral parenchyma ([5]; refs [13, 14]): moderate and decreases rapidly with time
patients with histologically confirmed tumor showing uptake ([6]; visual assessment): 86%

Compound: N[C@@H](Cc1ccc([131I])cc1)C(=O)O [IPA-131, 4-[^131I]iodo-L-phenylalanine]
induction of primary necrosis and apoptosis [2]: dose dependent induction of primary necrosis and apoptosis, which was more significant than that caused by external irradiation, even with 15 Gy
cell survival rate ([7]; 24 hours exposure, 1 μCi/ml, compared to parallel grown cell cultures without exposure): less than 22%
mode of cell death (cytological) ([7]; primary human glioma cell lines after 24 hours exposure): apoptosis
cell survival rate [8]: < 20%
metabolic and H & E staining of fresh-frozen tissue sections [9]: metabolic normalisation, and histological tumor disappearance
Kaplan-Meier survival of treated animals group ([10]; C6-glioma rats, 81 days after implantation, p=<0.05): significant longer survival
tumor disappearance, intravital small animal MRI imaging ([10]; dose 20 MBq, RNU rats): subgaleal and intracerebral tumor disappearance
tumour on MRI ([10]; surviving C6-glioma rats, 81 days after implantation): no tumour was demonstrable with MRI
seizures ([11]; treated animals): No seizures were observed
liver and kidney histomorphology ([11]; treated animals, autopsy): did not show any histomorphological abnormality
adverse therapy-related events and toxic effects ([11]; treated glioma rats, clinical observation): no adverse therapy-related events and no toxic effects were observed clinically
tumor uptake / targeting in glioma patient ([12]; SPECT 30 min and 26 h post injection): not only taken up but also retained by glioma tissue; also recorded: Successful tumor targeting
tolerability ([12]; patient): well tolerated
retention in tumor ([12]; patient, SPECT): at least 26 hours
survival vs maximum tolerable external irradiation ([13]; Kaplan-Meier analysis, 20 MBq vs external irradiation): significantly longer survival than those treated by maximum tolerable doses of external irradiation
survival time of treated rats vs control group ([13]; all glioma models, 20 MBq i.v. in two fractions): significantly increased
metabolic and H & E staining of fresh-frozen tissue sections [14]: metabolic normalisation, and histological tumor disappearance
